ChEMBL document CHEMBL5143632, “Arylalkynyl amide-type peroxisome proliferator-activated receptor γ (PPARγ)-selective antagonists covalently bind to the PPARγ ligand binding domain with a unique binding mode” (Bioorg Med Chem Lett, 2022)
Activity calls are given as the source filed them. The rule behind the calls is not given here.

Assays:
[1] = target: T1, Peroxisome proliferator-activated receptor gamma (Homo sapiens) (UniProt P37231); assay: Covalent binding affinity to apo PPARgamma ligand binding domain (unknown origin) assessed as adduct formation incubated for 24 hrs by ESI-MS analysis
T1 sequence (whole entry): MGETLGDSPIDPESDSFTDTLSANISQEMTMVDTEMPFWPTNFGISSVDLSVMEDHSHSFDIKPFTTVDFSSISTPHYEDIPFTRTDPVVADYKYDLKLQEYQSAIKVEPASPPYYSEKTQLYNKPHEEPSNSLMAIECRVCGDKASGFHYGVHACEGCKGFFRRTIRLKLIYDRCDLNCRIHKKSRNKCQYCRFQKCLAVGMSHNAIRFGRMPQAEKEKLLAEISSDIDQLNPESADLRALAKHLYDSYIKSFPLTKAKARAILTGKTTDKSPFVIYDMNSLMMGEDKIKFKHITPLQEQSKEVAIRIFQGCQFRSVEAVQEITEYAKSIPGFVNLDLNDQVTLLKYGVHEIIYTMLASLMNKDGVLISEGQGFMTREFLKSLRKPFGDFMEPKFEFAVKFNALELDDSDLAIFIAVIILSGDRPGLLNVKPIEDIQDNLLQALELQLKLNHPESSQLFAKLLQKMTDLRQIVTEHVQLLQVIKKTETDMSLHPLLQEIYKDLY

[2] = target: T1, Peroxisome proliferator-activated receptor gamma (Homo sapiens); assay: Covalent binding affinity to apo PPARgamma ligand binding domain (unknown origin) assessed as adduct formation measured within few minutes by ESI-MS analysis

Activity [1]	Activity [2]	Compound
Active		CCCOc1ccc(NC(=O)C#Cc2ccccc2)cc1CNC(=O)c1ccc(-c2ncccn2)cc1
Active		COc1ccc(NC(=O)C#Cc2ccccc2)cc1CNC(=O)c1ccc(N2CCCCC2)cc1
	Active	O=C(Nc1ccccc1)c1cc([N+](=O)[O-])ccc1Cl
